ChEMBL document CHEMBL1131643, “Synthesis and 5 alpha-reductase inhibitory activities of benzofuran derivatives with a carbamoyl group” (Bioorg Med Chem Lett, 1998)
pIC50: −log10 of the molar value.

target: T1, Steroid 5-alpha-reductase (Rattus norvegicus, UniProt P24008+P31214); test: In vitro inhibitory activity against rat testosterone 5 alpha reductase was determined; type: protein assay
T1 sequence (P24008 whole entry): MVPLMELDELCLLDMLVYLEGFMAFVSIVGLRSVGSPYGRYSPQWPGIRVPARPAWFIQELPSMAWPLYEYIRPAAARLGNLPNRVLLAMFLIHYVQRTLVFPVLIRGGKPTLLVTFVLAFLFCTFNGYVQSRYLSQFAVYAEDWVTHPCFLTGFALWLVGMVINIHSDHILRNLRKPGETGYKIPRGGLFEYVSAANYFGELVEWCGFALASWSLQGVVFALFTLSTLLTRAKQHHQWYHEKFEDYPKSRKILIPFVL
T1 sequence (P31214 whole entry): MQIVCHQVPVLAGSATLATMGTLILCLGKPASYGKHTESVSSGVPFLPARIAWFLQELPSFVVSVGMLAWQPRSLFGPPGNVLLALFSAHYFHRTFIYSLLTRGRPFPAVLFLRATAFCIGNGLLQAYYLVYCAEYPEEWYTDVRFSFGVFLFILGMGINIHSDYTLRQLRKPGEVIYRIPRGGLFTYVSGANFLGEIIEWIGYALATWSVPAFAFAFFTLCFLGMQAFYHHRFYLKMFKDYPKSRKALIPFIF

| Structure (SMILES) | IC50 |
| --- | --- |
| O=C(O)CCCOc1ccccc1-c1cc2ccc(C(=O)NC(c3ccccc3)c3ccccc3)cc2o1 | 28.5 nM |
| O=C(O)CCCOc1ccccc1-c1cc2ccc(C(=O)NC(c3ccc(F)cc3)c3ccc(F)cc3)cc2o1 | 37.9 nM |
| COc1ccc(C(NC(=O)c2ccc3cc(-c4ccccc4OCCCC(=O)O)oc3c2)c2ccc(OC)cc2)cc1 | 35.5 nM |
| O=C(O)CCCOc1ccccc1-c1cc2cc(C(=O)NC(c3ccccc3)c3ccccc3)ccc2o1 | 155 nM |
| CC(C)Cc1ccc(C(Nc2cccc(C(=O)c3cn(CCCC(=O)O)c4ccccc34)c2)c2ccc(CC(C)C)cc2)cc1 | 118 nM |
| COc1ccc(C(NC(=O)c2ccc3oc(-c4ccccc4OCCCC(=O)O)cc3c2)c2ccc(OC)cc2)cc1 | 26.3 nM |
| O=C(O)CCCOc1ccccc1-c1cc2cc(C(=O)NC(c3ccc(F)cc3)c3ccc(F)cc3)ccc2o1 | 279 nM |

target: T2, 3-oxo-5-alpha-steroid 4-dehydrogenase 1 (Homo sapiens, UniProt P18405); test: In vitro inhibitory activity against human Steroid 5-alpha-reductase type 1 in COS-1 cells was determined; type: cell-based
T2 sequence (P18405 whole entry): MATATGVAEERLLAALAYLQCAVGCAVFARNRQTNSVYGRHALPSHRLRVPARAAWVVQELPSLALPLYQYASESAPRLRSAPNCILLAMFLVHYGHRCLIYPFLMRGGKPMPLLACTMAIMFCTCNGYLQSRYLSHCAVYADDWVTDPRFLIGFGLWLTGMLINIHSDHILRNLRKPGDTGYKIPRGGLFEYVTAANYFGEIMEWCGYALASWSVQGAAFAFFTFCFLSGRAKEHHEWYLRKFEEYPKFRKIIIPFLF

| Structure (SMILES) | pIC50 |
| --- | --- |
| O=C(O)CCCOc1ccccc1-c1cc2ccc(C(=O)NC(c3ccccc3)c3ccccc3)cc2o1 | 7.21 |
| O=C(O)CCCOc1ccccc1-c1cc2ccc(C(=O)NC(c3ccc(F)cc3)c3ccc(F)cc3)cc2o1 | 7.30 |
| COc1ccc(C(NC(=O)c2ccc3cc(-c4ccccc4OCCCC(=O)O)oc3c2)c2ccc(OC)cc2)cc1 | 6.89 |
| O=C(O)CCCOc1ccccc1-c1cc2cc(C(=O)NC(c3ccccc3)c3ccccc3)ccc2o1 | 6.51 |
| CC(C)Cc1ccc(C(Nc2cccc(C(=O)c3cn(CCCC(=O)O)c4ccccc34)c2)c2ccc(CC(C)C)cc2)cc1 | 8.52 |

target: T3, 3-oxo-5-alpha-steroid 4-dehydrogenase 2 (Homo sapiens, UniProt P31213); test: In vitro inhibitory activity against human Steroid 5-alpha-reductase type 2 in COS-1 cells was determined; type: cell-based
T3 sequence (P31213 whole entry): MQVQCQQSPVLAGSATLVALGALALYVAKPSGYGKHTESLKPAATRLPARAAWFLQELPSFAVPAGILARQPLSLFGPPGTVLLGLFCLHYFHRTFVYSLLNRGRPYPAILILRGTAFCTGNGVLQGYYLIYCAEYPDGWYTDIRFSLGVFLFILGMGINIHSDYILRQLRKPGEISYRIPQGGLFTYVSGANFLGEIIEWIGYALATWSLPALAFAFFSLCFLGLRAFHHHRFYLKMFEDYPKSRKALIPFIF

| Structure (SMILES) | pIC50 |
| --- | --- |
| O=C(O)CCCOc1ccccc1-c1cc2ccc(C(=O)NC(c3ccccc3)c3ccccc3)cc2o1 | 6.57 |
| O=C(O)CCCOc1ccccc1-c1cc2ccc(C(=O)NC(c3ccc(F)cc3)c3ccc(F)cc3)cc2o1 | 6.47 |
| COc1ccc(C(NC(=O)c2ccc3cc(-c4ccccc4OCCCC(=O)O)oc3c2)c2ccc(OC)cc2)cc1 | 6.03 |
| O=C(O)CCCOc1ccccc1-c1cc2cc(C(=O)NC(c3ccccc3)c3ccccc3)ccc2o1 | < 4.00 |
| CC(C)Cc1ccc(C(Nc2cccc(C(=O)c3cn(CCCC(=O)O)c4ccccc34)c2)c2ccc(CC(C)C)cc2)cc1 | 7.96 |
